# Legend:
# K562 targets = format: cell-based, human; conditions: NK cells alone, inhibitor 10 μM, 48 hours
# Experimental: NK cells were co-cultured for 5 hours with K562 or GSCs target cells at an optimized effector:target ratio of 5:1 together with CD107a PE-CF594 (BD Biosciences), monensin (BD GolgiStopTM) and BFA (Brefeldin A, Sigma Aldrich). NK cells were incubated without targets as the negative control and stimulated with PMA (50 ng/mL) and ionomycin ([…], Sigma Aldrich) as positive control. Cells were collected, washed and stained with surface antibodies (mentioned above), fixed/permeabilized (BD Biosciences) and stained with IFN-7 v450 and TNF-α Alexa700 (BD Biosciences) antibodies.
# NK cell cytotoxicity was assessed using chromium (siCr) release assay. Briefly, K562 or GSCs target cells were labeled with siCr (PerkinElmer Life Sciences, Boston, Mass.) at 50 μCi/5×10^5 cells for 2 hours. ^51Cr-labeled K562/GSC targets (5×105) were incubated for 4 h with serially diluted magnetically isolated NK cells in triplicate. Supernatants were then harvested and analysed for ^51Cr content.
# For studies of NK cell suppression by GSCs and human astrocytes, magnetically selected healthy NK cells were cultured in Serum-free Stem Cell Growth Medium (SCGM; CellGro/CellGenix) supplemented with 5% glutamine, 5 μM HEPES (both from GIBCO/Invitrogen), and 10% FCS (Biosera) in 96-well flat-bottomed plates (Nunc) at 100,000/100D11. NK cells were co-cultured either alone (positive control) or with GSCs or astrocytes at a 1:1 ratio for 48 hours at 37° C. before performing functional assays to assess NK cells cytotoxicity.
# GSCs and purified NK cells were co-cultured for 48 hours in the presence of anti-TGFβ 123 (5 μg/ml) (R&D), HLA-ABC blocking antibody (clone W 6/32, Biolegend), CD44 blocking antibody (clone IM7, Biolegend), ILT-2 (CD85J) blocking antibody (clone HP-F1, ThermoFisher), CD155 blocking antibody (clone D171, GenTex), CD112 blocking antibody (clone TX31, Biolegend), 10 μM LY2109761, 10 μM galunisertib (LY2157299), 10 μM Cilengitide (Cayman Chemical) or 1 μM MMP-2/MMP-9 inhibitor I (Millipore). Cytotoxicity assays were then performed as described above.
# [1] = test system: TiNKs / HC-NK cells rendered dysfunctional by GSCs; assay: Reversal of established NK cell dysfunction (TiNKs ex vivo; NK cell recovery assays); format: cell-based, human
# Experimental: FIGS. 11A-11G. […] (FIG. 11A) NK cells were incubated with or without galunisertinib (10 μM) or LY2109761 (10 μM) for 48 hours. Representative zebra plots show their CD107a, IFN-γ, and TNF-α response to K562 targets. NK cells were gated on CD3-CD56+ lymphocytes. Inset numbers are the percentages of CD107a-, IFN-γ- or TNF-α-positive NK cells within the gated NK cell population. (FIGS. 11B-11C) NK cells were cultured either alone or with GSCs in a 1:1 ratio with or without LY2109761 or galunisertib for 48 hrs. Representative zebra plots and summary box plots show their CD107, IFN-γ, and TNF-α expression response to K562 (FIG. 11B) or GSC (FIG. 11C) targets. Effector:target ratio is 5:1. NK cells were defined as CD3-CD56+ lymphocytes. Inset numbers are the percentages of CD107a-, IFN-γ- or TNF-α-positive NK cells (n=7, n=4 respectively). (FIG. 11D) TiNK cells were cultured for 24 hours in media with 5 ng/ml IL-15 with or without galunisertib. Representative zebra plots and bar graph summary show their CD107, IFN-γ, and TNF-α response to K562 targets. Effector:target ratio is 5:1. NK cells were gated on CD3-CD56+ lymphocytes. Inset numbers are the percentages of CD107a-, IFN-γ- or TNF-α-positive NK cells within the indicated regions. (n=3). (FIG. 11E) TiNK cells and paired PB-NK cells from GBM patients were cultured in the presence or absence of galunisertib for 12 hours. The bar graphs summarize the mean fluorescence intensity (MFI) for their p-Smad⅔ expression. Paired t test was performed to determine statistical significance (n=3). (FIG. 11F) Specific lysis (^51Cr release assay) of K562 targets by NK cells. After 48 hours of culture alone (blue lines) or with GSCs, healthy donor NK cells were either left with GSCs (red lines), or purified and re-suspended in media for another 48 hours (black lines). NK cells were then collected and used for ^51Cr release assay (n=4). (FIG. 11G) Specific lysis (^51Cr release assay) of K562 targets by NK cells. After 48 hours of culture alone (blue lines) or with GSCs, healthy donor NK cells were either left with GSCs ([…]) or purified and cultured in SCGM media plus 5 ng/ml IL-15 with (black lines) or without galunisertib (10 μM) (gray lines) for […]. At the end of the culture period, their cytotoxicity was tested against k562 targets by ^51Cr release assay (n=4).
# NK cells were cultured either with GSCs in a 1:1 ratio or alone for 48 hours. After 48 hours of co-incubation, NK cells were then either purified again by bead selection and resuspended in SCGM media or remained in culture with GSCs for an additional 48 hours and then used for ^51Cr release assay. In a second assay, after reselection, NK cells were cultured for another 5 days in SCGM in the presence of 5 ng/ml IL-15 with or without 10 μM galunisertib before use for ^51Cr release assay.
smiles,measurement,setting,value
Cc1cccc(-c2nn3c(c2-c2ccnc4ccc(C(N)=O)cc24)CCC3)n1 [galunisertib],"NK cell function (CD107a, IFN-γ, TNF-α response to K562), NK cells without GSCs",K562 targets,neither inhibitor affected NK cell function
same,reversal of GSC-induced dysfunction of HC-NK cells,"[1]; NK cells purified after 48 hours with GSCs, then IL-15 5 ng/ml with or without galunisertib 10 μM",did not reverse the dysfunction of HC-NK cells induced by GSCs
same,"restoration of TiNK function (specific lysis of K562; CD107, IFN-γ, TNF-α)","[1]; TiNKs cultured 24 hours, galunisertib 10 μM or IL-15 5 ng/ml",failed to inactivate the TGF-β1 Smad⅔ signaling pathway and restore NK cell dysfunction
same,TGF-β1 Smad⅔ signaling in TiNKs,"[1]; TiNKs from GBM patients cultured ex vivo, galunisertib 12 hours or IL-15",failed to inactivate the TGF-β1 Smad⅔ signaling pathway

# Source: patent US20220378739A1, “NATURAL KILLER CELL IMMUNOTHERAPY FOR THE TREATMENT OF GLIOBLASTOMA AND OTHER CANCERS” (BOARD OF REGENTS, THE UNIVERSITY OF TEXAS SYSTEM, priority 2019, published 2022)
